Measured values from PMC4551467 (EBioMedicine, 2015).
“Also recorded” adds a separate entry of the source.

Tests used:
[1] = system: MRC-5 human lung normal cells; assay type: cell-based; settings: read-out: IC50 (agent concentration to kill 50% of untreated cells), MRC-5
[2] = system: human normal cells (GM05757 and MRC-5); assay type: cell-based; settings: read-out: IC50 toward human normal cells
[3] = mouse, in vivo, cited from earlier work
[4] = system: NIH:OVCAR-3 cisplatin-resistant human ovarian cancer cells; assay: cells; assay type: cell-based
MRC-5 human normal cells = assay type: cell-based
[5] = mouse, in vivo
[6] = system: HeLa, ME-180, MDA-MB-231, A549 and NIH:OVCAR-3 cancer cells; assay: cells; assay type: cell-based; settings: Homo sapiens, 72 h, read-out: IC50 against cancer cells
[7] = system: GM05757 human normal cells; assay type: cell-based
[8] = mouse, in vivo; remark: listed apart in the source
[9] = system: A549 lung cancer xenograft tumor tissue; set-up: species or system SCID mice; settings: mouse, in vivo
[10] = system: NIH:OVCAR-3 ovarian cancer xenograft; set-up: species or system SCID mice; settings: mouse, in vivo

Compound | IC50 [1] [µM] | IC50 [2] [µM] | mean body weight compared to vehicle control ([3]; 2.3 mg/kg) | levels of blood urea nitrogen (BUN) ([3]; 15 mg/kg) | mice that died within 5 days ([3]; 15 mg/kg) | NIH:OVCAR-3 cancer cells surviving high-dose treatment [4] | activation of caspase-3 and -7 in MRC-5 normal cells (MRC-5 human normal cells) | acute toxicity in mice (hepatotoxicity, nephrotoxicity, electrolytes) [5] | IC50 [6] [µM] | IC50 ([4]; Homo sapiens, OVCAR-3, 72 h, read-out: IC50, NIH:OVCAR-3) [µM] | increase of the GSH level in normal cells [7] | caspase activation (apoptosis) in normal cells (MRC-5 human normal cells) | overall physical toxicity in mice [8] | apoptosis in tumor tissue (TUNEL) vs untreated group [9] | cisplatin-resistant ovarian (NIH:OVCAR-3) tumor growth vs control [10]
cisplatin | ~6 | ≤ 10 | significant decrease | significantly elevated | Half | about 12% | significant activation | – | – | – | – | – | – | – | –
Nc1cc(Br)c(Br)cc1N [FMD-2Br-DAB, 4,5-dibromo-1,2-phenylenediamine] | – | – | – | – | – | – | – | no acute toxicity | 15 to 75 | 175 | about 40% | negligible caspase activation | no overall physical toxicity | significant enhancement in apoptosis | –
Nc1cc(I)c(I)cc1N [FMD-2I-DAB, 4,5-diiodo-1,2-phenylenediamine] | – | – | – | – | – | – | – | no acute toxicity | 15 to 75 | – | – | negligible caspase activation | no overall physical toxicity | significant enhancement in apoptosis; also recorded: most effective inducer of apoptosis | effectively suppressed
